This is an account of results in patent US8648066B2 (Exelixis, Inc., priority 2009, dated 2014).

The experiment has as its target mTOR/GbL/Raptor (mTORC1) (Homo sapiens, UniProt P42345). Briefly: mTOR/GbL/Raptor (mTORC1) ELISA assay. To be noted: phosphorylation of 4E-BP1; 0.2 nM mTORC1, 10 μM ATP; read-out: IC50 in this assay (mTORC1 ELISA). In kind it is biochemical. A digest of the protocol:
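ELISA read-out: phospho-4E-BP1 captured on Ni-chelate plates and detected with anti-phospho antibody plus HRP-anti-IgG luminescence. The kinase step ran 120 min at ambient temperature with 0.2 nM human mTORC1, 10 µM ATP, 50 nM His-4E-BP1, 10 mM MnCl2, pH 7.2 HEPES.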
In general terms: An ELISA detects its analyte on a solid surface through an enzyme-linked reagent.
As a reminder, the IC50 is the concentration needed to halve the response being measured. Regarding `Cc1nc2c(c(N3CCOc4ccc(-c5cnc6nc(C)[nH]c6c5)cc4C3)n1)CC(C)CC2` (stereo not drawn) [Example 460, 4-(2,6-dimethyl-5,6,7,8-tetrahydroquinazolin-4-yl)-7-(2-methyl-1H-imidazo[4,5-b]pyridin-6-yl)-2,3,4,5-tetrahydro-1,4-benzoxazepine], the IC50 lay in the range of 0.01 to 0.05 µM.

For `Cc1nc2ccc(-c3ccc4c(c3)CN(c3nc(CN5CC[C@@H](F)C5)nc5c3CC(C)(C)CC5)CCO4)cc2[nH]1` [Example 461], the IC50 was in the range of 0.05 to 0.25 µM.

As for `Cc1nc2ncc(-c3ccc4c(c3)CN(c3nc(CN5CC[C@@H](F)C5)nc5c3CC(C)(C)CC5)CCO4)cc2[nH]1` [Example 462], the IC50 lay in the range of 0.01 to 0.05 µM. With `Cc1nc2ccc(-c3ccc4c(c3)CN(c3nc(CN5CC[C@H](F)C5)nc5c3CC(C)(C)CC5)CCO4)cc2[nH]1` [Example 463, 4-(2-{[(3S)-3-fluoropyrrolidin-1-yl]methyl}-6,6-dimethyl-5,6,7,8-tetrahydroquinazolin-4-yl)-7-(2-methyl-1H-benzimidazol-6-yl)-2,3,4,5-tetrahydro-1,4-benzoxazepine], the IC50 was in the range of 0.05 to 0.25 µM. Take `Cc1nc2ncc(-c3ccc4c(c3)CN(c3nc(CN5CC[C@H](F)C5)nc5c3CC(C)(C)CC5)CCO4)cc2[nH]1` [Example 464, 4-(2-{[(3S)-3-fluoropyrrolidin-1-yl]methyl}-6,6-dimethyl-5,6,7,8-tetrahydroquinazolin-4-yl)-7-(2-methyl-1H-imidazo[4,5-b]pyridin-6-yl)-2,3,4,5-tetrahydro-1,4-benzoxazepine]: the IC50 was 0.01 to 0.05 µM. Regarding `C=Cc1nc2c(c(N3CCOc4ccc(-c5cnc6[nH]c(C)nc6c5)cc4C3)n1)CC(C)(C)CC2` [Example 465, 4-(2-ethenyl-6,6-dimethyl-5,6,7,8-tetrahydroquinazolin-4-yl)-7-(2-methyl-3H-imidazo[4,5-b]pyridin-6-yl)-2,3,4,5-tetrahydro-1,4-benzoxazepine], the IC50 was in the range of 0.01 to 0.05 µM. On to `CNC(=O)c1ccc(-c2ccc3c(c2)CN(c2nc(CN(C)C)nc4c2CC(C)(C)CC4)CCO3)cc1` [Example 466, 4-(4-{2-[(dimethylamino)methyl]-6,6-dimethyl-5,6,7,8-tetrahydroquinazolin-4-yl}-2,3,4,5-tetrahydro-1,4-benzoxazepin-7-yl)-N-methylbenzamide], for which the IC50 fell in the range of 0.05 to 0.25 µM. As for `Cc1nc2ncc(-c3ccc4c(c3)CN(c3ncnc(C)c3Br)CCO4)cc2[nH]1` [Example 468, 4-(5-bromo-6-methylpyrimidin-4-yl)-7-(2-methyl-1H-imidazao[4,5-b]pyridin-6-yl)-2,3,4,5-tetrahydro-1,4-benzoxazepine], the figure is 0.05 to 0.25 µM; as for `CCc1c(C)nc(C)nc1N1CCOc2ccc(-c3cnc4nc(C)[nH]c4c3)cc2C1` [Example 469, 4-(5-ethyl-2,6-dimethylpyrimidin-4-yl)-7-(2-methyl-1H-imidazo[4,5-b]pyridin-6-yl)-2,3,4,5-tetrahydro-1,4-benzoxazepine], 0.05 to 0.25 µM; as for `CCc1c(C)ncnc1N1CCOc2ccc(-c3cnc4nc(C)[nH]c4c3)cc2C1` [Example 470, 4-(5-ethyl-6-methylpyrimidin-4-yl)-7-(2-methyl-1H-imidazo[4,5-b]pyridin-6-yl)-2,3,4,5-tetrahydro-1,4-benzoxazepine], 0.05 to 0.25 µM. As to `Cc1nc2ncc(-c3ccc4c(c3)CN(c3ncnc5c3CC(F)(F)CC5)CCO4)cc2[nH]1` [Example 471, 4-(6,6-difluoro-5,6,7,8-tetrahydcroquinazolin-4-yl)-7-(2-methyl-1H-imidazo[4,5-b]pyridin-6-yl)-2,3,4,5-tetrahydro-1,4-benzoxazepine], the half-inhibitory concentration (IC50) was in the range of 0.05 to 0.25 µM. Take `Cc1nc2ccc(-c3ccc4c(c3)CN(c3nc(-c5ccccn5)nc5c3CC(C)(C)CC5)CCO4)cc2[nH]1` [Example 472, 4-(6,6-dimethyl-2-pyridin-2-yl-5,6,7,8-tetrahydroquinazolin-4-yl)-7-(2-methyl-1H-benzimidazol-6-yl)-2,3,4,5-tetrahydro-1,4-benzoxazepine]: the IC50 lay within 0.05 to 0.25 µM.

On to `Cc1nc2ncc(-c3ccc4c(c3)CN(c3nc(-c5ccccn5)nc5c3CC(C)(C)CC5)CCO4)cc2[nH]1` [Example 473, 4-(6,6-dimethyl-2-pyridin-2-yl-5,6,7,8-tetrahydroquinazolin-4-yl)-7-(2-methyl-1H-imidazo[4,5-b]pyridin-6-yl)-2,3,4,5-tetrahydro-1,4-benzoxazepine], for which the IC50 was 0.01 to 0.05 µM. For `COc1cncc(-c2ccc3c(c2)CN(c2ncnc4c2CC(C)(C)CC4)CCO3)c1` [Example 476, 4-(6,6-dimethyl-5,6,7,8-tetrahydroquinazolin-4-yl)-7-[5-(methyloxy)pyridin-3-yl]-2,3,4,5-tetrahydro-1,4-benzoxazepine], the IC50 lay in the range of 0.25 to 1 µM.

Take `CC1(C)CCc2ncnc(N3CCOc4ccc(-c5cnc6nccnc6c5)cc4C3)c2C1` [Example 477, 4-(6,6-dimethyl-5,6,7,8-tetrahydroquinazolin-4-yl)-7-pyrido[2,3-b]pyrazin-7-yl-2,3,4,5-tetrahydro-1,4-benzoxazepine]: the IC50 was 0.25 to 1 µM. `Cc1nc2ncc(-c3ccc4c(c3)CN(c3ncnc5c3CC(C)(C)C=C5)CCO4)cc2[nH]1` [Example 478, 4-(6,6-dimethyl-5,6-dihydroquinazolin-4-yl)-7-(2-methyl-1H-imidazo[4,5-b]pyridin-6-yl)-2,3,4,5-tetrahydro-1,4-benzoxazepine]: the IC50 is no more than 0.01 µM. On to `CC1(C)C=Cc2ncnc(N3CCOc4ccc(-c5ccc(-c6ncc[nH]6)cc5)cc4C3)c2C1` [Example 479, 4-(6,6-dimethyl-5,6-dihydroquinazolin-4-yl)-7-[4-(1H-imidazo-2-yl)phenyl]-2,3,4,5-tetrahydro-1,4-benzoxazepine], for which the IC50 was no more than 0.01 µM.

Take `Cc1nc2ncc(-c3ccc4c(c3)CN(c3ncnc(N5CCC5)c3C)CCO4)cc2[nH]1` [Example 480, 4-(6-azetidin-1-yl-5-methylpyrimidin-4-yl)-7-(2-methyl-1H-imidazo[4,5-b]pyridin-6-yl)-2,3,4,5-tetrahydro-1,4-benzoxazepine]: the IC50 was 0.25 to 1 µM. Turning to `Cc1nc2ncc(-c3ccc4c(c3)CN(c3ncnc(Cl)c3C)CCO4)cc2[nH]1` [Example 481, 4-(6-chloro-5-methylpyrimidin-4-yl)-7-(2-methyl-1H-imidazo[4,5-b]pyridin-6-yl)-2,3,4,5-tetrahydro-1,4-benzoxazepine], the IC50 lay in the range of 0.05 to 0.25 µM. For the compound `CCC1CCc2nc(C)nc(N3CCOc4ccc(-c5cnc6nc(C)[nH]c6c5)cc4C3)c2C1` (stereo not drawn) [Example 482, 4-(6-ethyl-2-methyl-5,6,7,8-tetrahydroquinazolin-4-yl)-7-(2-methyl-1H-imidazo[4,5-b]pyridin-6-yl)-2,3,4,5-tetrahydro-1,4-benzoxazepine], the IC50 lay within 0.01 to 0.05 µM.

With `CCC1CCc2ncnc(N3CCOc4ccc(-c5cnc6nc(C)[nH]c6c5)cc4C3)c2C1` (stereo not drawn) [Example 483, 4-(6-ethyl-5,6,7,8-tetrahydroquinazolin-4-yl)-7-(2-methyl-1H-imidaz[4,5-b]pyridin-6-yl)-2,3,4,5-tetrahydro-1,4-benzoxazepine], the IC50 was no more than 0.01 µM. As for `Cc1nc2ncc(-c3ccc4c(c3)CN(c3ncnc5c3CCC(C)(C)C5)CCO4)cc2[nH]1` [Example 484, 4-(7,7-dimethyl-5,6,7,8-tetrahydroquinazolin-4-yl)-7-(2-methyl-1H-imidazo[4,5-b]pyridin-6-yl)-2,3,4,5-tetrahydro-1,4-benzoxazepine], the figure is no more than 0.01 µM. As to `Cc1nc2ncc(-c3ccc4c(c3)CN(c3ncnc5c3CCCC5(C)C)CCO4)cc2[nH]1` [Example 485, 4-(8,8-dimethyl-5,6,7,8-tetrahydroquinazolin-4-yl)-7-(2-methyl-1H-imidazo[4,5-b]pyridin-6-yl)-2,3,4,5-tetrahydro-1,4-benzoxazepine], the IC50 was in the range of 0.01 to 0.05 µM.

Consider `Cc1nc2ncc(-c3ccc4c(c3)CN(c3ncnc5c3C[C@H](C)[C@@H](C)C5)CCO4)cc2[nH]1` [Example 486, 4-[(6S,7S)-6,7-dimethyl-5,6,7,8-tetrahydroquinazolin-4-yl]-7-(2-methyl-1H-imidazo[4,5-b]pyridin-6-yl)-2,3,4,5-tetrahydro-1,4-benzoxazepine], for which the IC50 was no more than 0.01 µM. As for `CC[C@H]1CCc2c(nc(C)nc2N2CCOc3ccc(-c4cnc5nc(C)[nH]c5c4)cc3C2)C1` [Example 487, 4-[(7S)-7-ethyl-2-methyl-5,6,7,8-tetrahydroquinazolin-4-yl]-7-(2-methyl-1H-imidazo[4,5-b]pyridin-6-yl)-2,3,4,5-tetrahydro-1,4-benzoxazepine], the figure is 0.01 to 0.05 µM; as for `CC[C@H]1CCc2c(ncnc2N2CCOc3ccc(-c4cnc5nc(C)[nH]c5c4)cc3C2)C1` [Example 488, 4-[(7S)-7-ethyl-5,6,7,8-tetrahydroquinazolin-4-yl]-7-(2-methyl-1H-imidazo[4,5-b]pyridin-6-yl)-2,3,4,5-tetrahydro-1,4-benzoxazepine], no more than 0.01 µM. With `C=C[C@H]1CCCc2c(ncnc2N2CCOc3ccc(-c4cnc5nc(C)[nH]c5c4)cc3C2)C1` [Example 489, 4-[(8S)-8-ethenyl-6,7,8,9-tetrahydro-5H-cyclohept[d]pyrimidin-4-yl]-7-(2-methyl-1H-imidazo[4,5-b]pyridin-6-yl)-2,3,4,5-tetrahydro-1,4-benzoxazepine], the IC50 was no more than 0.01 µM. In the case of `CC[C@H]1CCCc2c(ncnc2N2CCOc3ccc(-c4cnc5nc(C)[nH]c5c4)cc3C2)C1` [Example 490], the IC50 is no more than 0.01 µM. As to `Cc1nc(C)c(C(C)C)c(N2CCOc3ccc(-c4cnc5nc(C)[nH]c5c4)cc3C2)n1` [Example 491, 4-[2,6-dimethyl-5-(1-methylethyl)pyrimidin-4-yl]-7-(2-methyl-1H-imidazo[4,5-b]pyridin-6-yl)-2,3,4,5-tetrahydro-1,4-benzoxazepine], the IC50 is no more than 0.01 µM. As for `Cc1nc(C)c(CC2CC2)c(N2CCOc3ccc(-c4cnc5nc(C)[nH]c5c4)cc3C2)n1` [Example 492, 4-[5-(cyclopropylmethyl)-2,6-dimethylpyrimidin-4-yl]-7-(2-methyl-1H-imidazo[4,5-b]pyridin-6-yl)-2,3,4,5-tetrahydro-1,4-benzoxazepine], the figure is 0.01 to 0.05 µM.
